The values that follow come from patent publication US8921356B2, “Compositions comprising nicotinic agonists and methods of using same” (priority 2007, dated 2014).

Assay [1] relates to rats. Nature of the assay: Nicotine-induced hypothermia in rats. Format: in vivo, rat. How it is done:
(§1) (ii) Animals—Young adult (240 g-290 g) male Sprague-Dawley rats (Charles River, USA or Harlan, Israel) were used in the experiments.
(iv) Determination of nicotine-induced hypothermia—Rats were placed individually in experimental cages kept at 25° C. and were allowed to rest for 1 h before drug injection. During this period, body temperature was measured at 15- or 30-min intervals in order to exclude the effect of handling on animal temperature. Body temperature was measured with a rectal thermistor probe (M.R.C, Israel, sensitivity 0.1° C.). The probe was lubricated with petroleum before being inserted into the rectum to a depth of 2 cm. The data are presented as changes in rectal temperature from the basal values. Basal values are those taken immediately before the drug injection (time 0).
Rats were divided into three treatment groups, each of 5 rats, as follows: 1. treatment with nicotine (2 mg/kg); 2. treatment with opipramol (20 mg/kg); 3. treatment with opipramol (20 mg/kg) together with nicotine (2 mg/kg). Rats were injected with nicotine twice on the first day (FIG. 3A, D-1, left panel) and three times on days 2 (FIG. 3A, D-2, middle panel) and 3 (FIG. 3A, D-3, right panel). […] Nicotine was injected with and without opipramol, and body temperature was measured at 30 min intervals. […] FIG. 3A: Each point is the Mean±S.E.M. of change in body temperature compared to the temperature measured at time 0 (before the first injection) for at least five rats. FIG. 3B depicts a bar histogram representing mean±S.E.M. of the maximum change in body temperature compared to the temperature measured just before the injection.
The body temperature (0 C) was measured 30 min post injection. FIG. 7 depicts the maximum decrease in body temperature after each injection.
Nicotine (2 mg/kg), lidocaine (15 mg/kg), and nicotine+lidocaine (2 mg/kg+15 mg/kg) were administered to rats 2× day for two days, following the above protocol.

Assay [2] deals with nAChR. The experiment in a line: Nicotine-induced 45Ca2+ uptake (calcium influx) in SK-N-SH human neuroblastoma cells. Format: cell-based. On the procedure:
(i) Cells—SK-N-SH human neuroblastoma cell line was obtained from the American Type Culture Collection (ATTC).
SK-N-SH human neuroblastoma cells, known to express nAChR, were grown in Dulbecco/Vogt Modified Eagle's Minimal Essential Medium (DMEM) to confluency in a 24-well plate. DMEM containing 45Ca^2+ without any other addition (1) or with 50 μM nicotine (2) or with 50 μM nicotine+10 μM opipramol (3) was added to cells grown in 24-well plates and preincubated with medium alone for 15 minutes, then washed rapidly. Intra cellular radioactivity was determined for each condition. The same medium with nicotine was added also to cells that were preincubated for 15 minutes with either 50 μM nicotine alone (4) or with 50 μM nicotine+10 μM opipramol (5). 45Ca2+ uptake was determined after 10 min. Activation of the nicotinic receptors causes calcium influx so it is a measure of the nicotinic receptor activity.

Assay [3] relates to smooth muscle of a guinea pig ileum. The experiment in a line: Nicotine-induced smooth muscle contraction in the guinea pig ileum preparation. On the procedure:
The free end of a smooth muscle of a guinea pig ileum was attached to a force displacement transducer. Isometric tension of the smooth muscle was continuously monitored by outputting the preamplified transducer signal to a computer.
The ileum preparation was washed by physiological solution 10 min after the addition of nicotine and then nicotine at a final concentration of 25 μM was added again to the muscle preparation for additional 10 min (2nd stimulation; bar 3).

The subject of assay [4] is BDNF mRNA. Nature of the assay: BDNF mRNA expression in rat cerebral cortex. Format: in vivo. How it is done:
Nicotine alone (0.5 mg/kg) or opipramol (10 mg/kg) or nicotine (0.5 mg/kg)+opipramol (10 mg/kg) were injected intraperitoneally (ip) to rats (5 per group) at intervals of 2 hours during a single day. The drugs were dissolved in saline and used in the same day. […] Animals were sacrificed 90 min after each injection and brain derived neurotrophic factor (BDNF) and β-actin mRNA were determined in homogenates of the cerebral cortex of each animal.
Homogenates of the cerebral cortex were prepared as follows: Rat brain tissues were sonicated for 15 sec and total RNA was obtained using the Trizol Reagent (Molecular Research Center, Cincinnati, Ohio, USA), according to the manufacturer's instructions. RNA concentrations were quantified by measuring the absorbances at 260 and 280 nm. RNA was reverse transcribed into cDNA during 45 min at 42° c. The cDNA products were diluted 1:40 for BDNF and 1:1000 for β-actin (a housekeeping gene for internal standard). In order to amplify gene specific sequences, PCR techniques were applied using ReadyMix PCR Master Mix (AB-genes, Surrey, UK) and specific primer sequences for BDNF and beta actin. The products were separated by electrophoresis on agarose and quantification of the bands was done by an image analyzer.

Assay [5] has as its system rats. The experiment in a line: Elevated plus maze (EPM) anxiety test in rats. It is filed as in vivo, rat.
From the text: as §1
(v) Elevated […] Maze (EPM)—The purpose of the EPM is to determine the anxiolytic effects of tested drugs. The time that the experimental animals spend in the open arm of the maze is an indication for the anxiolytic effect, the longer the time the higher the anxiolytic effect. The EPM is a wooden, cross-shaped device, consisting of four arms arranged in the shape of a plus sign. Two of the arms have no side or end walls (open-arms; 30×5×0.25 cm). The other two arms have side walls and end walls, but are open on top (closed arms; 30×5×15 cm). The maze is elevated to a height of 50 cm. The animals are kept in a relatively dark box before exposure to the maze in order to increase their exploratory behavior. The tests were done in a silent environment under dim light. The animals were carried to the laboratory and left there undisturbed for 1 h before the experiment.
This test is used to assess anxiety. Rats were randomly assigned into five groups each containing 5 animals and then tested in an Elevated Plus Maze (EPM). In the first (control) group, rats were injected with saline once a day; in the second group rats were injected with nicotine (0.5 mg/kg or 2 mg/kg) three times a day and were tested in the maze after the third injection; in the third group rats were injected with opipramol (10 mg/kg) three times a day and then were tested in the maze; in the fourth group, rats were injected with opipramol (10 mg/kg) or galantamine (5 mg/kg), and nicotine (2 mg/kg or 0.5 mg/kg) three times a day and were tested in the maze after the last injection. The behavioral response to nicotine in the EPM was assessed 30 min after the first injection, and then again 30 minutes after the third injection.

With `CN(C)CCCN1c2ccccc2CCc2ccc(Cl)cc21` [clomipramine], the “hypothermic effect of nicotine” value is on record as “no further reduction in the hypothermic effect” in assay [1] (clomipramine 30 mg/kg with nicotine 2 mg/kg, consecutive injections 2 h apart) and “inhibited to some extent the effect of nicotine” in assay [1] (clomipramine 30 mg/kg with nicotine 2 mg/kg, first injection).

As for `CCN(CC)CC(=O)Nc1c(C)cccc1C` [lidocaine], the “hypothermic effect of nicotine” value in assay [1] (lidocaine 15 mg/kg + nicotine 2 mg/kg, 2x day for two days) was “maintained the hypothermic effect of nicotine”.

On to `CN1CCC[C@H]1c1cccnc1` [nicotine, S-3-(1-methyl-2-pyrrolidinyl)pyridine], for which, in assay [1] (nicotine 2 mg/kg alone, 2x day for two days), the hypothermic effect result was “loss of the hypothermic effect”. Besides, the “hypothermic effect (maximum decrease in body temperature)” value in assay [1] (nicotine 2 mg/kg alone, 3 injections 2 h apart) is given as “gradual decrease in the hypothermic effect”. In addition, the “magnitude of the decrease in body temperature” value in assay [1] (nicotine 2 mg/kg repeatedly injected for three consecutive days, P<0.05) is on record as “became progressively smaller”. The “calcium influx (45Ca2+ uptake)” value in assay [2] (first exposure to 50 μM nicotine, compared to basal uptake, SK-N-SH cells) is reported as “caused an increase in calcium influx”; in assay [2] (second exposure to 50 μM nicotine after 15 min preincubation with nicotine alone), “considerably reduced”. The muscle contraction result in assay [3] (1st stimulation, 25 μM nicotine alone) is listed as “caused muscle contraction”; in assay [3] (2nd stimulation with 25 μM nicotine after 1st stimulation with nicotine alone) it was “did not induce muscle contraction”. Further, the “BDNF mRNA level (ratio to β-actin)” value is on record as “much smaller rise” in assay [4] (nicotine 0.5 mg/kg ip alone, repeated (third) injection) and “increased” in assay [4] (nicotine 0.5 mg/kg ip, first injection). Moreover, in assay [5] (nicotine alone, 0.5 mg/kg and 2 mg/kg, second injection), the “anxiolytic effect (time in open arm)” value is “did not induce an anxiolytic effect”. In addition, in assay [5] (one injection of nicotine), the “time spent in the open arm (anxiolytic effect)” value is recorded as “significantly increased”.

For `OCCN1CCN(CCCN2c3ccccc3C=Cc3ccccc32)CC1` [opipramol], the “change in body temperature” value in assay [1] (opipramol 20 mg/kg alone) is on record as “only a slight decrease in body temperature”. Moreover, the “magnitude of the reduction in body temperature” value in assay [1] (opipramol 20 mg/kg together with nicotine 2 mg/kg, second and third day, after second and third injections, P<0.001) is “significantly larger than that induced by nicotine alone”. In assay [2] (first stimulation with 50 μM nicotine in the presence of 10 μM opipramol, compared to nicotine alone), the “calcium uptake (45Ca2+)” value was “only slightly smaller”. Moreover, the “nAChR desensitization (45Ca2+ uptake at second nicotine stimulation)” value in assay [2] (second stimulation with 50 μM nicotine after 15 min preincubation with 50 μM nicotine + 10 μM test drug) is recorded as “remarkedly reduced”. In assay [3] (1st stimulation, 25 μM nicotine in the presence of 10 μM opipramol), the “effect of nicotine (muscle contraction) relative to that induced by nicotine alone” value was “about 50%”. The “muscle contraction response to nicotine” value in assay [3] (2nd stimulation with 25 μM nicotine after 1st stimulation in the presence of opipramol) is recorded as “almost full response”. In addition, in assay [3] (nicotine administered together with opipramol, until removal by washing, data not shown), the “duration of the effect of nicotine (muscle contraction)” value is given as “maintained steady for one hour”. The “BDNF mRNA level (ratio to β-actin)” value in assay [4] (nicotine 0.5 mg/kg + opipramol 10 mg/kg ip, third injection) is reported as “rising even above that which was observed with nicotine alone”; in assay [4] (opipramol 10 mg/kg ip alone, third injection) it was “no effect”. For the same compound, the “anxiolytic effect (time in open arm)” value in assay [5] (nicotine 0.5 mg/kg together with opipramol 10 mg/kg or galantamine 5 mg/kg, second injection) is reported as “the anxiolytic effect was seen in the second injection”; in assay [5] (nicotine 2 mg/kg together with opipramol 10 mg/kg or galantamine 5 mg/kg) it was “inhibited desensitization”.
